Key:
[1] = test system: MPA bound to plasma proteins in normal human plasma (NHP); test: MPA enzyme immunoassay rates with releasing agents in Reagent A (NHP versus buffer), Example 2
Protocol: Rates were determined on a Cobas Mira Plus® instrument (Roche Diagnostics Systems, Inc., Branchburg, N.J.). The temperature was kept at 37° C. for the entire assay. Timings were carried out in cycles with each cycle being 25 seconds. In cycle 1, the first cycle, 75 μL of water and 3 μL of a sample were mixed with 155 μL of A diluent in a 0.6 cm path length cuvette. This mixture was incubated until the addition of Reagent B in cycle 7. […] In cycle 7, seventy-five μL of Reagent B followed by 20 μL of water was then added to the cuvette, mixed, and incubated until the end of cycle 25 at which time the assay was finished. During the assay, absorbance readings at 340 nm were made at the end of every cycle. A best linear fit was then made using only the 12 consecutive absorbance readings of cycles 14 through 25 versus time in minutes. The slope of this line was the rate.
In these experiments, the diluent for Reagent A (Rgt A) was made somewhat differently than that in Example 1. However, the composition was the same, except for component 7 (releasing agent, o-anisic acid) and component 10 (concentration of MPA antibody). Five diluents were prepared, four with one of each of the above agents and one control with no agent. First, a 2×solution was made in the manner described in Example 1 but which had only components 1 through 5 and 9 at twice the amounts listed. Next, for three of the diluents, each of the three anisic acid isomers was weighed to achieve a final molarity of 12.5 mM and predissolved in one quarter the final volume of water and a minimum amount of 6 N NaOH (approximately 6 drops per 0.2 grams anisic acid). For the fourth diluent, the agent, ANS, was weighed to give a 0.25 mM final concentration and added to one quarter the final volume of water. The fifth diluent, the control, had no releasing agent. To make each of these five diluents, the appropriate amounts of the 2×solution, the 1×amount of BSA, component 8, and the 1×amount of the Pluronic 25R solution, component 6, were combined. Four of these then received the appropriate agent. All were mixed well. Where necessary, pH adjustments were made as described previously and each preparation was brought to the final volume with deionized water to achieve 1× concentrations of components. Each of these A diluents was then filtered through a 0.2 micron filter. Final pH measurements on each were all between 5.5 to 5.7. For each of these five A diluents, a corresponding Reagent A was made by adding antibody to MPA for a final concentration of 6.5 μg/mL. Reagent B (Rgt B) was prepared as described in Example 1 except that component 20 was omitted and 0.1% BSA (Miles Diagnostics, Kankakee, Ill.) was substituted for BLG.
In a total of two runs the effects of each of the four agents relative to a control of no agent was examined with respect to (1) background absorbance at 340 nm, (2) the rate of a negative MPA sample, (3) the rate span between 0 and 10 μg/mL MPA, and (4) the closeness of rate matching of a 10 μg/mL MPA spike in NHP and in buffer. Both runs included the control Reagent A. The first run evaluated Reagent A with ANS while the second run evaluated Reagent A preparations containing the structural isomers of anisic acid.
MPA was spiked into NHP and buffer (Buff) to achieve a final concentration of 10 μg/mL MPA. Buffer in this example was 50 mM MES (2-[N-morpholino]ethanesulfonic acid, obtained from Sigma Chemical Company) with 0.1% (weight/volume) sodium azide, pH 7.1. As with PBS, this buffer has no protein and thus no protein binding of MPA can occur.
In both runs, the background absorbance at 340 nm for each Reagent A was measured in duplicate on a 230-μL combination of 3 μL negative NHP, 72 μL of deionized water, and 155 μL Reagent A. The cell path length was 0.6 cm. The average A340 (A=absorbance) values are found in Column C of Table 1. Duplicate rates were determined on the spiked and unspiked NHP and buffer similar to Example 1. […]

[2] = test system: MPA bound to plasma proteins in normal human plasma; test: MPA rates in plasma spikes in the presence of co-administered drugs and salicylate, with or without o-anisic acid, Example 4; details: o-anisic acid 12.5 mM in Reagent A
Protocol: In a separate study, the ability of o-anisic acid to eliminate the effect of salicylate on rates of MPA plasma spikes was compared. Two sets of antibody reagents (Reagent A) were prepared to the basic formulation described in Example 2 above. In one reagent, no releasing agent was added; in another reagent, o-anisic acid was added at 12.5 mM. A common Reagent B was prepared as described in Example 2. Rates for four levels of MPA spikes into plasma and a plasma control were measured with each reagent set. […] Salicylate was present at 659 μg/mL. Rates were determined as described in Example 2 above with the exception of the absorbance read window, which was extended to cycle 20 where the assay was ended. Rates were determined using the 10 consecutive absorbance readings of cycles 11 through 20.

[3] = Background absorbance at 340 nm of Reagent A containing releasing agent; type: physicochemical; details: ANS 0.25 mM, anisic acids 12.5 mM in Rgt A
Protocol: In both runs, the background absorbance at 340 nm for each Reagent A was measured in duplicate on a 230-μL combination of 3 μL negative NHP, 72 μL of deionized water, and 155 μL Reagent A. The cell path length was 0.6 cm. […] These changes are noted as follows. Reagent B and water were added in cycle 4. The analysis was finished at the end of cycle 15. Rates were determined using the 5 absorbance readings of cycles 11 through 15.

[4] = 50 mM MES buffer pH 7.1, ANS 0.25 mM, anisic acids 12.5 mM in Rgt A
[5] = ANS 0.25 mM, anisic acids 12.5 mM in Rgt A
[6] = plasma with NI drugs + salicylate 659 μg/mL
[7] = plasma with non-interfering co-administered drugs

COc1ccccc1C(=O)O [o-AA, o-methoxybenzoic acid]
I (H-G) Buff Rate Span ([1]; 0 to 10 μg/mL MPA in buffer): 109.3 mA/min
J (H-F) Buff-NHP Rate Diff. ([1]; 10 μg/mL MPA, closer to zero = better releasing effect): 0.6 mA/min
G Buff with 0 μg/mL MPA Rate [1, 4]: 168.2 mA/min
H Buff with 10 μg/mL MPA Rate [1, 4]: 277.5 mA/min
E NHP with 0 μg/mL MPA Rate [1, 5]: 169.5 mA/min
F NHP with 10 μg/mL MPA Rate [1, 5]: 276.9 mA/min
effect of o-anisic acid in the antibody reagent on salicylate interference [2]: eliminated this potential problem
Rate, MPA + MeOH, 0 μg/mL MPA ([2]; plasma + methanol control): 161
Rate, MPA + MeOH, 0.5 μg/mL MPA ([2]; plasma + methanol control): 171
Rate, MPA + MeOH, 2.5 μg/mL MPA ([2]; plasma + methanol control): 210
Rate, MPA + MeOH, 5 μg/mL MPA ([2]; plasma + methanol control): 234
Rate, MPA + MeOH, 15 μg/mL MPA ([2]; plasma + methanol control): 264
Rate, MPA + NI + Salicylate, 0 μg/mL MPA [2, 6]: 161
Rate, MPA + NI + Salicylate, 0.5 μg/mL MPA [2, 6]: 171
Rate, MPA + NI + Salicylate, 2.5 μg/mL MPA [2, 6]: 211
Rate, MPA + NI + Salicylate, 5 μg/mL MPA [2, 6]: 234
Rate, MPA + NI + Salicylate, 15 μg/mL MPA [2, 6]: 263
Rate, MPA + NI, 0 μg/mL MPA [2, 7]: 161
Rate, MPA + NI, 0.5 μg/mL MPA [2, 7]: 173
Rate, MPA + NI, 2.5 μg/mL MPA [2, 7]: 211
Rate, MPA + NI, 5 μg/mL MPA [2, 7]: 234
Rate, MPA + NI, 15 μg/mL MPA [2, 7]: 263
C A 340 nm (background absorbance) ([3]; 3 μL negative NHP + 72 μL water + 155 μL Reagent A, 0.6 cm path): 0.490
D ΔA = agent - control ΔA 340 nm [3]: 0.004

From patent US6887669B1, “Reagents for assays for ligands” (Dade Behring Marburg GmbH, priority 1996, dated 2005)
